Data set [1] deals with IL-1α-induced PGE2 release. The experiment in a line: IL-1α-induced PGE2 release in human diploid lung fibroblasts (WI-38) (Assay 5). It counts as cell-based. To be noted: Homo sapiens, WI-38 cells, IL-1α 1 nM, overnight. The method, then:
(§1) Human diploid lung fibroblasts (WI-38 cells) were incubated overnight in the presence of IL-1α (1 nM) and test compound (3 and 30 μM) in modified Eagle medium at pH 7.3 containing foetal bovine serum (10%) at 37° C. The supernatant was assayed by radioimmunoassay for released PGE2 and the inhibition of PGE2 by test compound calculated (Table 10). The viability of the cells was then assessed by washing with Roswell Park Memorial Institute medium and adding Alamar Blue reagent before being incubated at 37° C. for 4 h. Living cells take up Alamar Blue and emit fluorescence when excited. Fluorescence intensity was measured using a SpectroFluor Plus plate reader with excitation at 530 nm and emission at 590 nm (Table 10).

The target of another data set is T1, 5-lipoxygenase (Homo sapiens, UniProt P09917).
T1 construct: endogenous in cells; host or cells: human peripheral blood mononuclear leukocytes (PBMLs)
T1 sequence (P09917 1-674): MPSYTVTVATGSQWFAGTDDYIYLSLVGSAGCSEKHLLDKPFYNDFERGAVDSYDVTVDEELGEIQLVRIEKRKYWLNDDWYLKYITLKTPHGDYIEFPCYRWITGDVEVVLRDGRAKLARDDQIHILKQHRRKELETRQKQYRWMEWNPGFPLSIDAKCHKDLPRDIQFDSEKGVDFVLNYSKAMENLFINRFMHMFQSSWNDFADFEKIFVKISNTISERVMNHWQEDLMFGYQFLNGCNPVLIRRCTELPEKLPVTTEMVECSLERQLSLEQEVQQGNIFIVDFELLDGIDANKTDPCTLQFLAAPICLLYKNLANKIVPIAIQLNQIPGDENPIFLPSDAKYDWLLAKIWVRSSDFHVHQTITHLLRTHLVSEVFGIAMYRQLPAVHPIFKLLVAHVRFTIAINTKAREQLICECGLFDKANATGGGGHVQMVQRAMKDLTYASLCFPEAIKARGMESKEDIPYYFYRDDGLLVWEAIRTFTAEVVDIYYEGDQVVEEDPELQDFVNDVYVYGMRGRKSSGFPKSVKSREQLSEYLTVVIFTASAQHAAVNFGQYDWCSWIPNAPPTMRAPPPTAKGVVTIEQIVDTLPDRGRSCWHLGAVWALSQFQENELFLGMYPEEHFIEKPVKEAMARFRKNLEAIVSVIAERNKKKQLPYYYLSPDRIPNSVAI
Briefly: 5-lipoxygenase activity (LTB4) in human peripheral blood mononuclear leukocytes (Assay 6). The class given is cell-based. The conditions noted are these: human PBMLs, A23187 30 μM, read-out: Inhibition of 5-LO (%). The method, then:
Human peripheral blood mononuclear leukocytes (PBMLs) were isolated using a Ficoll-Paque density gradient. Human peripheral blood mononuclear leukocytes (5×10^6 cells) were incubated with A23187 (30 μM), a divalent cation ionophore used to initiate the biosynthesis of […], and with vehicle (0.1% DMSO) or test compound (3 and 30 μM) in Hank's balanced salt solution (HBBS) buffer, pH 7.4 at 37° C. for 15 min. The PBML solution was neutralized with NaOH (1 N) and centrifuged at 1000 g for 10 min and the supernatant collected. The concentration of leukotriene B4 (LTB4) in the supernatant was measured using an enzyme immunoassay kit (Assay Design Inc.). A reduction in the concentration of LTB4 indicated an inhibition of the enzyme 5-lipoxygenase (Table 11).

Data set [2] has as its system 5-HT-induced contractions in guinea pig ileum. Briefly: Inhibition of 5-HT-induced contractions in guinea pig ileum (Assay 3). To be noted: Cavia porcellus, 5-HT 2.6 μM, read-out: Inhibition of 5-HT-induced contraction (%). Here is the method:
(§2) Duncan Hartley derived male guinea pigs (325±25 g) were suppressed by CO2 overexposure, the abdominal cavity was exposed and ileal segments were removed. Small strips of ileum were suspended in organ baths containing Krebs solution (composition in g/l: NaCl 6.89, KCl 0.35, CaCl2 0.277, KH2PO4 0.163, MgSO4.7H2O 0.296, NaHCO3 2.1 glucose 1.8). The solution was kept at 32° C. and gassed with O2 (95%)-CO2 (5%) to maintain pH at 7.4. Mechanical activity was recorded by means of isotonic transducers. A resting tension of 1 g was applied to muscle strips before being equilibrated for 1 h, prior to test compound addition. Each preparation was washed twice at 15 min intervals during the equilibration.
(§3) Histamine (1.7 μM; approximately EC60-70) or 5-hydroxytryptamine (5-HT, 2.6 μM; approximately EC60-70) was applied for 5 min and the amplitude of the contraction recorded. The histamine or 5-HT was then washed out until the ileal tissue returned to baseline. Five min after returning to baseline test compound (3 and 30 μM) was applied and the amplitude of the contraction (if any) was recorded. In the continuous presence of test compound, histamine or 5-HT was re-applied and the inhibition of the response was recorded.

In another data set the test system is WI-38 cells. Briefly: Viability of WI-38 cells, Alamar Blue (Assay 5). It counts as cell-based, human. The method, then: as §1
In another data set the target is TRPV1 receptor (Rattus norvegicus, UniProt O35433). The experiment in a line: TRPV1 modulation in DRG neurones: CGRP release in absence and presence of capsaicin (Assay 2). It counts as cell-based. Details: The culture used for this experiment contained sensory neurones, Schwann cells and fibroblasts; endogenous in cells; host or cells: primary rat DRG sensory neurone culture (with Schwann cells and fibroblasts). To be noted: 20 min; for inhibition at 3 µM: 3 μM with capsaicin 1 μM; for inhibition at 3 µM / inhibition at 30 µM: −ve: inhibition, +ve: potentiation of capsaicin response, read-out: Effect of test compounds on capsaicin (1 μM)-induced CGRP release (%); for inhibition at 30 µM: 30 μM with capsaicin 1 μM; for Emax at 3 µM: test compound alone 3 μM; for Emax at 3 µM / Emax at 30 µM: rat DRG sensory neurones, read-out: CGRP release (% of capsaicin (1 μM) response); for Emax at 30 µM: test compound alone 30 μM.
TRPV1 receptor, sequence (O35433 whole entry): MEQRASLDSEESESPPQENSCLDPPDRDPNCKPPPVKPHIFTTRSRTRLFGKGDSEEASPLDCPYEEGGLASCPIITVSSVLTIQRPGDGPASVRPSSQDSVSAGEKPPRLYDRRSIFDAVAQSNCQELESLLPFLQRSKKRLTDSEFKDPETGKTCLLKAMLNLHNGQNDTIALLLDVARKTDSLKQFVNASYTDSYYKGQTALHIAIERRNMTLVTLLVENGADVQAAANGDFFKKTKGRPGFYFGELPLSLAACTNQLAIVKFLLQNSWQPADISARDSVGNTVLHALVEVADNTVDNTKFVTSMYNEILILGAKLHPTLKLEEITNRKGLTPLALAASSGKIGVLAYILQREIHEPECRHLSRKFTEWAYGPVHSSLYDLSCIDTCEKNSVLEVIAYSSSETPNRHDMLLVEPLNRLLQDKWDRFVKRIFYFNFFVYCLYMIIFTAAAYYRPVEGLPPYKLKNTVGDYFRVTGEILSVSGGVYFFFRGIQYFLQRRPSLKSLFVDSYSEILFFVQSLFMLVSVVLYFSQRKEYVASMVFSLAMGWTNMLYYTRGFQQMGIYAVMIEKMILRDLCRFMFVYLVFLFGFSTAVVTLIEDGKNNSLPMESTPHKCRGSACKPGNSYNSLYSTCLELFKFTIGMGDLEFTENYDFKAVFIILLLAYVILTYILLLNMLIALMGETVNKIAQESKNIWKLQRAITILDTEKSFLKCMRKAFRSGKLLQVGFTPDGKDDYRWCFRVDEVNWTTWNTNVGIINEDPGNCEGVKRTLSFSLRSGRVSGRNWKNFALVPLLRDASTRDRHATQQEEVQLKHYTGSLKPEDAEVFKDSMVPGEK

For data set [3], the system named is histamine-induced contractions in guinea pig ileum. Briefly: Inhibition of histamine-induced contractions in guinea pig ileum (Assay 3). To be noted: Cavia porcellus, histamine 1.7 μM, read-out: Inhibition of histamine-induced contraction (%). The method, then:
as §2, §3

Data set [4] has as its system α-smooth muscle actin (α-SMA) mRNA. The experiment in a line: Anti-remodelling activity in human lung fibroblasts (HFL1): TGFβ-induced α-SMA mRNA (Assay 4). It counts as cell-based. To be noted: Homo sapiens, HFL1 cells, TGFβ 10 ng/ml, 24 h, read-out: Inhibition of α-SMA mRNA synthesis (%). Here is the method:
A human foetal lung fibroblast cell line (HFL1 cells; ATCC accession number CCl-153) was used in this assay. The cells were cultured in medium containing a low level of foetal bovine serum (FBS; 0.1%) for 24 h. After 24 h of culturing the medium was changed to: (a) Control medium (medium containing 10% FBS, 1% phosphate saline and 0.5 mM L-glutamine), (b) Control medium and transforming growth factor beta (TGFβ; 10 ng/ml), (c) Control medium and TGFβ and test compounds (3 and 30 μM). The medium was collected after 24 h and the total mRNA extracted in Tri-reagent. The level of mRNA coding for α-smooth muscle actin (α-SMA) was assessed by real-time reverse transcription-polymerase chain reaction (rtRT-PCR) using primer couples that allow the amplification of α-SMA mRNA. Liver glyceraldehydes 3-phosphate dehydrogenase (GADPH) was used as a reference marker in this experiment. The inhibition of the TGTβ-induced overexpression of α-SMA mRNA by the test compounds was quantified.

With `COc1cc(CCC(=O)CC(=O)c2ccc(C#N)cc2)ccc1O` [Compound 82, 1-(4-Cyanophenyl)-5-(4-hydroxy-3-methoxyphenyl)pentane-1,3-dione], the inhibition at 3 µM in data set [1] was 78%; at 5-lipoxygenase, 48%; in data set [2], 13%; at TRPV1 receptor, 4%; in data set [3], 12%; in data set [4], -3%. The inhibition at 30 µM was determined as 102% in data set [1]; 97% at 5-lipoxygenase; 83% in data set [2]; 27% at TRPV1 receptor; 20% in data set [3]; 39% in data set [4]. For the same molecule, the “Decrease in cell viability (%)” value is recorded as −4% in the data set on WI-38 cells (3 μM) and 6% in the data set on WI-38 cells (30 μM). In addition, on TRPV1 receptor, the Emax at 3 µM is 53%. The Emax at 30 µM at TRPV1 receptor is 58%.

Take `COc1cc(CCC(=O)C(C)C(=O)c2ccc(C)cc2)ccc1O` (stereo not shown) [Compound 14, 5-(4-Hydroxy-3-methoxylphenyl)-2-methyl-1-p-tolyl-pentane-1,3-dione]: the inhibition at 3 µM in data set [1] is 77%; on 5-lipoxygenase, 57%; in data set [2], 10%; on TRPV1 receptor it was -12%; in data set [3], 10%; in data set [4], 11%. The inhibition at 30 µM in data set [1] came to 101%; at 5-lipoxygenase, 96%; in data set [2] it was 74%; at TRPV1 receptor it was 35%; in data set [3], 54%; in data set [4], 17%. Further, the entries for the “Decrease in cell viability (%)” value with WI-38 cells (3 μM) and in the data set with WI-38 cells (30 μM) were 5% and −4%, respectively. For the same molecule, the Emax at 3 µM on TRPV1 receptor amounted to 120%. In addition, at TRPV1 receptor, the Emax at 30 µM turned out to be 94%.

Turning to `COC(=O)c1ccc(C(=O)CC(=O)CCc2ccc(O)c(OC)c2)cc1` [Compound 25, Methyl 4-(5-(4-hydroxy-3-methoxyphenyl)-3-oxopentanoyl)benzoate], the inhibition at 3 µM is 58% in data set [1]; 54% on 5-lipoxygenase; 12% in data set [2]; 18% on TRPV1 receptor; 1% in data set [3]; -3% in data set [4]. The inhibition at 30 µM stood at 102% in data set [1]; 94% at 5-lipoxygenase; 35% in data set [2]; 21% at TRPV1 receptor; 43% in data set [3]; 20% in data set [4]. The “Decrease in cell viability (%)” value is on record as −6% with WI-38 cells (3 μM) and 0% in the data set on WI-38 cells (30 μM). In addition, the Emax at 3 µM on TRPV1 receptor came out at 48%. For the same molecule, the Emax at 30 µM at TRPV1 receptor was 59%.

Regarding `COc1cc(CCC(=O)CC(=O)Cc2cccc3ccccc23)ccc1O` [Compound 29, 6-(4-Hydroxy-3-methoxyphenyl)-1-naphthalen-1-yl-hexane-2,4-dione], the inhibition at 3 µM in data set [1] was 86%; on 5-lipoxygenase, 47%; in data set [2], 5%; on TRPV1 receptor, 46%; in data set [3], 17%; in data set [4], 33%. Moreover, the inhibition at 30 µM in data set [1] is 99%; at 5-lipoxygenase, 98%; on TRPV1 receptor, -41%; in data set [3], 89%; in data set [4] it was 86%. Also, the “Decrease in cell viability (%)” value is listed as −1% with WI-38 cells (3 μM) and 12% in the data set on WI-38 cells (30 μM). Moreover, on TRPV1 receptor, the Emax at 3 µM came out at 65%. Besides, the Emax at 30 µM at TRPV1 receptor came out at 164%.

Turning to `COc1cc(CCC(=O)CC(=O)c2ccc(C)cc2)ccc1O` [Compound 80, 5-(4-Hydroxy-3-methoxyphenyl)-1-p-tolylpentane-1,3-dione], the inhibition at 3 µM in data set [1] stood at 72%; on 5-lipoxygenase it was 61%; in data set [2] it was 14%; on TRPV1 receptor it was 44%; in data set [3], 2%; in data set [4] it was 4%. In addition, the inhibition at 30 µM is 102% in data set [1]; 97% on 5-lipoxygenase; 68% in data set [2]; -24% on TRPV1 receptor; 62% in data set [3]; 29% in data set [4]. The “Decrease in cell viability (%)” value in the data set with WI-38 cells (3 μM) worked out at 2%; in the data set on WI-38 cells (30 μM), 1%. For the same molecule, on TRPV1 receptor, the Emax at 3 µM turned out to be 68%. Also, the Emax at 30 µM on TRPV1 receptor was 118%.

Source of the values: patent US7589123B2, “Chemical compounds” (Phytopharm PLC, priority 2006, dated 2009).
